Results published in ChEMBL document CHEMBL1155558, “New cyclic peptide and bisindolyl benzenoid metabolites from the sclerotia of Aspergillus sclerotiorum” (2000).

System: Spodoptera frugiperda
Assay: Activity against Spodoptera frugiperda assessed as reduction in feeding rate at 50 ug/cotton leaf disk
Format: functional
Design: scale not given: the % may be the effect or the level left

**Q.** With `CN1C(=O)[C@H](CCC(N)=O)NC(=O)CNC(=O)[C@H](Cc2ccccc2)N(C)C(=O)[C@H](Cc2ccccc2)NC(=O)CNC(=O)[C@@H]1Cc1ccccc1` [SCLERAMIDE] as the compound, how does the Activity read?
**A.** 27%
